Among the data in PubChem BioAssay (NCI) are TGI and GI50 values, retold here.

The structures appear in SMILES notation.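 48-hour exposure; five concentrations; linearly interpolated endpoints. GI50 marks 50% less growth. Definition used: TGI = concentration required for complete inhibition of growth.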

Test systems include HCT-15 colon; SF-539 CNS; K-562 leukemia; SN12C renal; NCI-H460 lung; NCI-H226 lung; SR leukemia; MALME-3M melanoma; SNB-75 CNS; HOP-92 NSCLC.
What all share (test): NCI anticancer screen, dose series, 48 h

With `COC(=O)C1=C(O)C(C(=O)OC)[C@@]2(O)[C@@H](C(=O)OC)CC[C@@H]1[C@@H]2C(=O)OC` (some centres not stated), the TGI was 64.2 µM in the experiment on HCT-15 colon; 46.1 µM with SF-539 CNS; more than 100 µM in the experiment on K-562 leukemia; more than 100 µM in the experiment with SN12C renal; 35.9 µM with NCI-H460 lung; 70.9 µM with NCI-H226 lung. The TGI was 63.9 µM in the experiment with SR leukemia, 74.3 µM with MALME-3M melanoma and 64.8 µM with SNB-75 CNS.
Take `COc1cc(Cc2ccc3c(c2C#N)N(C)c2ccccc2S3)cc(OC)c1OC`: the TGI in the experiment on HCT-15 colon was 61.3 µM; in the experiment on SF-539 CNS it was 42.7 µM; with K-562 leukemia, more than 100 µM; with SN12C renal, more than 100 µM; with NCI-H460 lung, more than 100 µM; in the experiment with NCI-H226 lung, more than 100 µM. The TGI in the experiment with SR leukemia, in the experiment on HOP-92 NSCLC and in the experiment on MALME-3M melanoma was more than 100 µM throughout.
Consider `C/C(=N\NC(=S)Nc1ccc(Cl)cc1)c1nc2ncccc2[nH]1`, for which the TGI in the experiment on HCT-15 colon stood at 14.5 µM; in the experiment on SF-539 CNS, 8.27 µM; with K-562 leukemia it was 44.2 µM; in the experiment on SN12C renal, 31.4 µM; in the experiment with NCI-H460 lung it was 4.14 µM; with NCI-H226 lung, 8.25 µM. Further, the TGI in the experiment on SR leukemia was more than 100 µM; in the experiment with HOP-92 NSCLC it was 5.75 µM; in the experiment on MALME-3M melanoma, 15.7 µM; in the experiment on SNB-75 CNS, 25.4 µM.
For `CN(CCO)/N=N/c1nc[nH]c1C(N)=O`, the TGI with HCT-15 colon, in the experiment on SF-539 CNS, with SN12C renal, in the experiment with NCI-H460 lung, in the experiment on NCI-H226 lung and in the experiment on SR leukemia was more than 100 µM in each case. Moreover, the TGI with HOP-92 NSCLC, with MALME-3M melanoma and in the experiment on SNB-75 CNS was more than 100 µM each time.
With `CCOC(=O)Oc1ccc2c(c1)c(=O)c1c(NCCCN(CC)CC)ccc3nnn2c31`, the TGI in the experiment with HCT-15 colon was 21 µM; with SF-539 CNS it was 19 µM; with K-562 leukemia, more than 52.7 µM; with SN12C renal, 19.1 µM; in the experiment on NCI-H460 lung, 15.2 µM; with NCI-H226 lung it was 19.8 µM. Further, the figures for the TGI with SR leukemia, with HOP-92 NSCLC and in the experiment with MALME-3M melanoma were more than 53 µM, 24.6 µM and 29.7 µM, respectively.
Take `Cc1nc(N(CCO)CCO)c2sc(=S)n(-c3ccccc3)c2n1`: the TGI in the experiment with SF-539 CNS, with K-562 leukemia, in the experiment with NCI-H460 lung, with NCI-H226 lung, in the experiment with SR leukemia and in the experiment on HOP-92 NSCLC was more than 100 µM each time. Also, the TGI in the experiment on MALME-3M melanoma and in the experiment with SNB-75 CNS was more than 100 µM each time.
For `NC(=S)N/N=C/c1ccc(OC(=O)COc2ccccc2Cl)cn1`, the TGI with HCT-15 colon is more than 100 µM; in the experiment with SF-539 CNS, 52.2 µM; with K-562 leukemia, more than 100 µM; in the experiment on SN12C renal, more than 100 µM; in the experiment on NCI-H460 lung, more than 100 µM; with NCI-H226 lung it was 73.9 µM. The figures for the TGI in the experiment with HOP-92 NSCLC, in the experiment with MALME-3M melanoma and with SNB-75 CNS were more than 90.3 µM, more than 88.7 µM and more than 100 µM, respectively.
As for `O=c1oc2c(ccc3c(O)cccc32)c2c1CCCC2`, the TGI in the experiment with SF-539 CNS, in the experiment on K-562 leukemia, in the experiment with SN12C renal, in the experiment with NCI-H460 lung, with NCI-H226 lung and in the experiment with SR leukemia was more than 100 µM in each case. Also, the TGI with HOP-92 NSCLC is 50.1 µM; in the experiment with MALME-3M melanoma it was more than 100 µM; in the experiment with SNB-75 CNS, 19.9 µM.
Regarding `Cc1ccc(S(=O)(=O)Nc2cc(Sc3ccccc3)c(O)c3ccccc23)cc1`, the GI50 is 6.81 µM with HCT-15 colon; 3.19 µM with SF-539 CNS; 3.38 µM in the experiment on K-562 leukemia; 2.31 µM with SN12C renal; 17.6 µM in the experiment with NCI-H460 lung; 14.7 µM in the experiment on NCI-H226 lung. Besides, the GI50 was 3.27 µM in the experiment with SR leukemia, 2.02 µM with HOP-92 NSCLC, 7.17 µM with MALME-3M melanoma and 12.9 µM in the experiment with SNB-75 CNS. Also, the TGI came to 25.1 µM with HCT-15 colon; 9.51 µM in the experiment with SF-539 CNS; 10.7 µM in the experiment with K-562 leukemia; 5.68 µM in the experiment with SN12C renal; 34.5 µM in the experiment on NCI-H460 lung; 39.3 µM in the experiment on NCI-H226 lung. Also, the TGI is 12.6 µM in the experiment on SR leukemia, 4.57 µM in the experiment on HOP-92 NSCLC, 19.6 µM in the experiment on MALME-3M melanoma and 25.5 µM in the experiment with SNB-75 CNS.
As for `C/C([O-])=C(/c1nc(-c2ccc([N+](=O)[O-])o2)no1)[n+]1cc(C)ccc1C`, the TGI in the experiment on HCT-15 colon was 22.3 µM; in the experiment on SF-539 CNS, 27.6 µM; with K-562 leukemia it was more than 51.9 µM; in the experiment with SN12C renal, 29.3 µM; in the experiment on NCI-H460 lung it was 17.5 µM; with NCI-H226 lung, 31.6 µM. The results for the TGI in the experiment with HOP-92 NSCLC, in the experiment with MALME-3M melanoma and in the experiment on SNB-75 CNS were more than 100 µM, 28.2 µM and more than 49.9 µM, respectively.
As for `BrC1=CN2C[n+]3cc(Br)c4ccccc4c3N=C2c2ccccc21`, the TGI with HCT-15 colon is more than 100 µM; in the experiment with SF-539 CNS it was 25.7 µM; with K-562 leukemia, 39.5 µM; with SN12C renal, 50.4 µM; in the experiment on NCI-H460 lung, 32.9 µM; in the experiment with SR leukemia, 9.01 µM. Besides, the TGI came to 29.6 µM in the experiment with HOP-92 NSCLC, 7.14 µM in the experiment with MALME-3M melanoma and 10.9 µM in the experiment on SNB-75 CNS.
For `CCOC(=O)/C(=N/Nc1ccc(Cl)cc1)N1C(=S)C=C(C)NN(C)C1=S`, the TGI in the experiment with HCT-15 colon, with SF-539 CNS, in the experiment with K-562 leukemia, in the experiment on SN12C renal, in the experiment with NCI-H460 lung and with SR leukemia was more than 100 µM in each case. Also, the figures for the TGI in the experiment with HOP-92 NSCLC and in the experiment with SNB-75 CNS were more than 100 µM and 69.3 µM, respectively.
For `CCOC(=O)C(=O)Nc1cccc(C)c1C`, the TGI with HCT-15 colon, in the experiment on SF-539 CNS, with K-562 leukemia, in the experiment on SN12C renal, in the experiment on NCI-H460 lung and in the experiment on NCI-H226 lung was more than 100 µM in each case. The TGI in the experiment on SR leukemia, in the experiment on HOP-92 NSCLC, in the experiment with MALME-3M melanoma and in the experiment on SNB-75 CNS was more than 100 µM throughout.
With `COc1cc2nc(N3CCC[C@@H](NC4=CC(=O)c5ccccc5C4=O)C3)nc(N)c2cc1OC`, the GI50 was 2.31 µM in the experiment on HCT-15 colon; 0.427 µM in the experiment with K-562 leukemia; 1.73 µM in the experiment on SN12C renal; 2.1 µM in the experiment on NCI-H460 lung; 21.9 µM in the experiment on NCI-H226 lung; 0.266 µM in the experiment on SR leukemia. Further, the GI50 with SNB-75 CNS was 1.64 µM. Moreover, the TGI with HCT-15 colon was 6.02 µM; with K-562 leukemia it was 2.36 µM; in the experiment with SN12C renal it was 3.44 µM; in the experiment with NCI-H460 lung it was 4.36 µM; in the experiment on NCI-H226 lung, 52.7 µM; in the experiment with SR leukemia it was 0.892 µM. Moreover, the TGI in the experiment with SNB-75 CNS is 3.25 µM.
